In US9573907B2, “2, 4-pyrimidine derivatives and use thereof” (SNU R&DB FOUNDATION, priority 2009, dated 2017):
“Also recorded” adds a separate entry of the source.

How the values were obtained:
[1] = system: HL-60 cell lines; test: FACS analysis of gp96 on cell surface of HL-60 cell lines; type: cell-based; details: 1 mM, 24 hours
Protocol: FIG. 35 is a graph showing an FACS analysis result using gp96 antibody, on the amount of gp96 protein existing on a cell surface, when HL-60 cell lines were treated with a 2,4-pyrimidine derivatives at a concentration of 1 mM for 24 hours.
Also, HL-60 cell lines were treated with a 2,4-pyrimidine derivative at a concentration of 1 mM for 24 hours, and the amount of gp96 protein existing on a cell surface was analyzed through flow cytometry (FACS) using gp96 antibody.

[2] = system: cell surface gp96 of splenocytes isolated from C57BL/6 mice; test: Flow cytometry of cell surface gp96 on splenocytes; type: cell-based; details: 10 μM, 24 h
Protocol: FIGS. 1 to 9 represent suppression of cell surface gp96 by GPM1 reduces DC maturation and B220^+ population in gp96tm transgenic mice. (FIG. 1) Chemical structure of GPM1 (Formula 2) and negative control (NC1, Formula 16) used in this study. (FIG. 2) The dose-dependent effect of GPM1 or NC1 on the AIMP1-gp96 interaction using ELISA method as described. The indicated concentrations of the two compounds and biotin-conjugated murine gp96 were added to AIMP1 coated on the surface of microtiter wells, and gp96 bound to AIMP1 was detected with strepavidin-conjugated peroxidase. (FIG. 3) The binding of GPM1 to gp96 was examined by surface plasmon resonance (SPR). GPM1 at the indicated concentrations was injected to immobilized gp96 and the binding was measured using Biacore 3000. The response data were processed using data from a reference surface and buffer injections. Each concentration was tested in triplicate. (FIG. 4) RAW24.7 cells were treated with 10 μM GPM1 for 24 h. Cell lysates were immunoprecipitated with control IgG or anti-gp96 antibody and the immunoprecipitated proteins were immunoblotted with anti-KDELR1, antiAIMP1 and gp96 antibodies. WCL means whole cell lysate. […] TNFα secreted from BMDCs was quantified by ELISA. […]

[3] = biological target: interaction of gp96 and AIMP1 (Mus musculus, UniProt P08113); test: ELISA assay of gp96-AIMP1 interaction; type: binding, murine
interaction of gp96 and AIMP1, sequence (P08113 22-802): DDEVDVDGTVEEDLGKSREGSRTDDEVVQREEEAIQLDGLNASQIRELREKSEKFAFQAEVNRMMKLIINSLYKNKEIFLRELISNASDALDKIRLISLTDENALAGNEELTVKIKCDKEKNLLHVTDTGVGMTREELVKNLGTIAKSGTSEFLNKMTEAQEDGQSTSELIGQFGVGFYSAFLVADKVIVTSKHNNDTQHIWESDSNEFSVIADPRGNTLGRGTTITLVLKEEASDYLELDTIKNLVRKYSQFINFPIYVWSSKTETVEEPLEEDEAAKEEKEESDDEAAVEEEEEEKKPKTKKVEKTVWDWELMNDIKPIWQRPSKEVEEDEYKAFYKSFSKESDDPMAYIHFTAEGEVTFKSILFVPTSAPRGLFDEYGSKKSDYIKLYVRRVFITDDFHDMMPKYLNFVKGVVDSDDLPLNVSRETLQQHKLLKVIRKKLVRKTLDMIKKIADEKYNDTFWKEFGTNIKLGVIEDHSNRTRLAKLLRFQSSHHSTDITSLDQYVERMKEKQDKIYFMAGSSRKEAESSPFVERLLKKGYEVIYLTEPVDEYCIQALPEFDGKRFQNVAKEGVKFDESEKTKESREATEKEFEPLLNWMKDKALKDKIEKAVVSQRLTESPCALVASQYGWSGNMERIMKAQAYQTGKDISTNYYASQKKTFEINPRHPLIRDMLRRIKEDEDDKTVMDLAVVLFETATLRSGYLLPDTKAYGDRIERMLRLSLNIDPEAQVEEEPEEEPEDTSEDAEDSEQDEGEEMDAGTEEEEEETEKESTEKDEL
Protocol: FIGS. 1 to 9 represent suppression of cell surface gp96 by GPM1 reduces DC maturation and B220^+ population in gp96tm transgenic mice. (FIG. 1) Chemical structure of GPM1 (Formula 2) and negative control (NC1, Formula 16) used in this study. (FIG. 2) The dose-dependent effect of GPM1 or NC1 on the AIMP1-gp96 interaction using ELISA method as described. The indicated concentrations of the two compounds and biotin-conjugated murine gp96 were added to AIMP1 coated on the surface of microtiter wells, and gp96 bound to AIMP1 was detected with strepavidin-conjugated peroxidase. (FIG. 3) The binding of GPM1 to gp96 was examined by surface plasmon resonance (SPR). GPM1 at the indicated concentrations was injected to immobilized gp96 and the binding was measured using Biacore 3000. The response data were processed using data from a reference surface and buffer injections. Each concentration was tested in triplicate. (FIG. 4) RAW24.7 cells were treated with 10 μM GPM1 for 24 h. Cell lysates were immunoprecipitated with control IgG or anti-gp96 antibody and the immunoprecipitated proteins were immunoblotted with anti-KDELR1, antiAIMP1 and gp96 antibodies. WCL means whole cell lysate. (FIG. 5) Splenocytes isolated from C57BL/6 mice were treated with vehicle (5% DMSO in PBS), GPM1, or NC1 (10 μM, 24 h), stained for cell surface gp96, and followed by flow cytometry. (FIG. 6) AIMP1^+/+ or AIMP1^−/− mouse splenocytes (2×10^5 cells) were treated with vehicle, GPM1, or NC1 (10 μM, 24 h), fixed, and then co-cultured with WT bone marrow-derived DCs (1×10^4 cells) for 16 h. TNFα secreted from BMDCs was quantified by ELISA. (FIG. 7) Percentage of gp96^+ MHC class II^+ cell population in splenocytes from gp96tm transgenic female mice treated with vehicle (control) (n=9), GPM1 (n=9), and dexamethasone (n=7) at 30 mg/kg. (FIG. 8) Cell surface ICOSL of CD11b^+CD11c^+ (myeloid DCs), CD11b^−CD11c^+ (lymphoid DCs), and CD11b^+CD11c^− (macrophages) cell populations in splenocytes from gp96tm transgenic female mice treated with vehicle (n=9) and GPM1 (n=9) at 30 mg/kg. (FIG. 9) Percentage of B220^+, MHC class II^+, CD4^+, CD8^+, CD4 and CD8 double negative cell populations in splenocytes from gp96tm transgenic female mice treated with vehicle (n=9), GPM1 (n=9), and dexamethasone (n=7) at 30 mg/kg. Student t-test P values comparing GPM1-treated mice with control are indicated.
96-well plates (Maxisorp., F96; Nunc) were coated with 500 ng/well AIMP1 in PBS (pH 7.4). After washing, the remaining sites were blocked with PBS containing 1% BSA for 1 h. Binding of 10 ng/well biotin-conjugated gp96 was performed in Tris buffer (25 mM Tris, 10 mM NaCl and 0.4% Triton X-100). Each of the 6,580 compounds was added to the well at 100 nM and the plates were washed and incubated with HRP conjugated streptavidin in PBS containing 0.1% BSA and 0.1% Tween 20 for 30 min. The plates were washed, and then substrate was added to each well. The absorbance was monitored at 450 nm.
To identify chemicals that can affect membrane translocation of gp96, the present inventors employed the interaction of gp96 with AIMP1 as the screening target. For this screening, the present inventors chose 6,482 chemicals with different pharmacophore representing 150,000 different chemicals deposited in Korea Chemical Bank and identified the compounds that can inhibit the interaction of the two proteins. For the screening, the present inventors set up a modified ELISA method using recombinant AIMP1 and gp96 proteins as described in Experimental methods. Each of the tested compounds gave different effect on the interaction of the two proteins (FIG. 19). And the present inventors have selected 12 compounds that inhibited the interaction more than 95% of the control at 0.1 μM (Table 1). The present inventors obtained 1251 additional compounds derived from these 12 initial hits and tested them again for their activities against the gp96-AIMP1 interaction.

| SMILES | amount of gp96 protein existing on a cell surface [1] | further results |
| --- | --- | --- |
| COC(=O)C(C)(C)Oc1nc(OC)cc(OC)n1 [KR-S-013, 2-(4,6-Dimethoxy-pyrimidin-2-yloxy)-2-methyl-propionic acid methyl ester] | better effects than KR-S-015 |  |
| COC(=O)CC(C)Oc1nc(OC)cc(OC)n1 [KR-S-014, D-3-(4,6-Dimethoxy-pyrimidin-2-yloxy)-butyric acid methyl ester] | better effects than KR-S-015 |  |
| COc1cc(OC)nc(OC(C(=O)O)c2ccccc2)n1 (stereo not shown) [KR-S-017, (4,6-Dimethoxy-pyrimidin-2-yloxy)-phenyl-acetic acid] | better effects than KR-S-015 |  |
| CCCCNC(=O)C(Oc1nc(OC)cc(OC)n1)c1ccccc1 (stereo not shown) [KR-S-020, N-Butyl-2-(4,6-dimethoxy-pyrimidin-2-yloxy)-2-phenyl-acetamide] | better effects than KR-S-015 |  |
| COc1cc(OC)nc(O[C@H](C(=O)O)C(C)C)n1 [KR-S-022, L-2-(4,6-Dimethoxy-pyrimidin-2-yloxy)-3-methyl-butyric acid] | better effects than KR-S-015 |  |
| COc1cc(OC)nc(O[C@H](C)C(=O)O)n1 [KR-S-023, D-2-(4,6-Dimethoxy-pyrimidin-2-yloxy)-propionic acid] | better effects than KR-S-015; also recorded: better than isopropyl (KR-S-009, KR-S-010) |  |
| COc1cc(OC)nc(O[C@@H](C)C(=O)O)n1 [KR-S-024, L-2-(4,6-Dimethoxy-pyrimidin-2-yloxy)-propionic acid] | better effects than KR-S-015; also recorded: better than isopropyl (KR-S-009, KR-S-010) |  |
| COc1cc(OC)nc(OC(Cc2ccccc2)C(=O)O)n1 (stereo not shown) [NC1, 2-(4,6-dimethoxypyrimidin-2-yloxy)-3-phenylpropanoic acid, reference compound] |  | surface gp96 of mouse splenocytes [2]: not; inhibition on the interaction of gp96 and AIMP1 [3]: 4%; dose-dependent effect on the interaction of gp96 and AIMP1 ([3]; ELISA): no effect |
